Legend:
MV4-11 cells = assay: MV4-11 cellular proliferative assay, Assay Format B (CTG 2.0, 168 h); type: cell-based; conditions: Homo sapiens, 168 h (7 days), CTG 2.0, read-out: IC50 (MV4-11 cellular proliferative assay, Assay format B)
Protocol: MV4-11 cells at a confluency of ~50-80% was used for cell growth assay. 600 cells/well in a 384-well opaque cell culture plate (6007680; Perkin Elmer) were seeded in 40 μL of complete medium (IMDM+10% FBS+1X Penicillin-Streptomycin). Cells were incubated overnight at 37° C., 5% CO2. 10 mM DMSO stocks were prepared, cells were treated with 10 concentrations of test compounds starting from 1 uM or 100 nM, 3-fold dilution in 10 uL (5×concentration) of complete medium. Final DMSO concentration was 0.3%. Culture plates were centrifuged at 40×g, 30s. Cells were incubated with compounds for 168 h (7 days). After 7 days, 20 uL CTG 2.0 reagent (G9242; Promega) was added per well and luminescence reading was taken in Envision Xcite 2105 multimode plate reader. Data was analyzed in GraphPad Prism 10.0 and data was shown as % viability with respect to DMSO control and dose-response curves were generated using four parameter logistic regression. Assay quality was determined by z-factor calculation using positive and negative controls.

MLLT1 = biological target: T1, MLLT1 (Homo sapiens, UniProt Q03111); assay: MLLT1 degradation assay in MV4-11 cells (JESS chemiluminescent detection), three concentrations, 24 h; type: cell-based; conditions: with respect to DMSO control
T1 construct: host or cells: MV4-11
T1 sequence (Q03111 1-559): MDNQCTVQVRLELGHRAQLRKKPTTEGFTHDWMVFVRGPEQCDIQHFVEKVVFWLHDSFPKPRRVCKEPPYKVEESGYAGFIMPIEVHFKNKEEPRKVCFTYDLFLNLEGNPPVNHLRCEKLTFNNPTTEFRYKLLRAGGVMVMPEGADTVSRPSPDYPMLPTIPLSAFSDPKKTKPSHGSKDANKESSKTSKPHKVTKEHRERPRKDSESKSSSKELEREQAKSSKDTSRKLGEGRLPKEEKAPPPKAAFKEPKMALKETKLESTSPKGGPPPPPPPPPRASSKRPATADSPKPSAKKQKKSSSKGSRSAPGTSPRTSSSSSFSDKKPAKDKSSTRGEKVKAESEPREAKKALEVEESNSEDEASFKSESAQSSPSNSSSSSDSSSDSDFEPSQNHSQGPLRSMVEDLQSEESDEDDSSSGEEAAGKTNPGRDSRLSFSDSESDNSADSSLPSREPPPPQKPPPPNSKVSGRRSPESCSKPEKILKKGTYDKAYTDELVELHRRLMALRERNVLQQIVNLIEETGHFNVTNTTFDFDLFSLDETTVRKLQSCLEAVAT
Method in brief: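 Read-out is % MLLT1 degradation versus DMSO, from band peak areas on a JESS chemiluminescent system. Cells (MV4-11) were exposed for 24 h at 37° C to three compound levels, 10, 100 and 1000 nM, in 0.1% DMSO.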

Row | Compound | IC50 (MV4-11 cells) [nM] | MLLT1% Degradation @ 0.01 μM (MLLT1) | MLLT1% Degradation @ 0.1 μM (MLLT1) | MLLT1% Degradation @ 1 μM (MLLT1)
1 | CN1CCC[C@@H]1c1cc2cnc(NC(=O)c3ccc(N4CCC(COC5CCN(c6cccc7c6CN(C6CCC(=O)NC6=O)C7=O)CC5)CC4)nc3)cc2[nH]1 (stereo partly drawn) [Example 140, 6-(4-(((1-(2-(2,6-dioxopiperidin-3-yl)-1-oxoisoindolin-4-yl)piperidin-4-yl)oxy)methyl)piperidin-1-yl)-N-(2-((R)-1-methylpyrrolidin-2-yl)-1H-pyrrolo[3,2-c]pyridin-6-yl)nicotinamide] | ≤ 100 | B (Category B: 50% ≤ B < 75% degradation) | A (Category A: A ≥ 75% degradation) | A (Category A: A ≥ 75% degradation)
2 | CN1CCC[C@@H]1c1cc2cnc(NC(=O)c3ccc(OC4CCN(CC5CCN(c6ccc7c(c6)C(=O)N(C6CCC(=O)NC6=O)C7=O)CC5)CC4)cc3)cc2[nH]1 (stereo partly drawn) [Example 124, 4-((1-((1-(2-(2,6-dioxopiperidin-3-yl)-1,3-dioxoisoindolin-5-yl)piperidin-4-yl)methyl)piperidin-4-yl)oxy)-N-(2-((R)-1-methylpyrrolidin-2-yl)-1H-pyrrolo[3,2-c]pyridin-6-yl)benzamide] | ≤ 100 | B (Category B: 50% ≤ B < 75% degradation) | A (Category A: A ≥ 75% degradation) | A (Category A: A ≥ 75% degradation)
3 | CN1CCC[C@@H]1c1cc2cnc(NC(=O)c3ccc(C4CCN(C(=O)CC5CCN(c6cccc7c6CN(C6CCC(=O)NC6=O)C7=O)CC5)CC4)cc3)cc2[nH]1 (stereo partly drawn) [Example 107, 4-(1-(2-(1-(2-(2,6-dioxopiperidin-3-yl)-1-oxoisoindolin-4-yl)piperidin-4-yl)acetyl)piperidin-4-yl)-N-(2-((R)-1-methylpyrrolidin-2-yl)-1H-pyrrolo[3,2-c]pyridin-6-yl)benzamide] | ≤ 100 | B (Category B: 50% ≤ B < 75% degradation) | A (Category A: A ≥ 75% degradation) | A (Category A: A ≥ 75% degradation)
4 | C[C@H]1CN(CC2CCN(c3cccc4c3CN(C3CCC(=O)NC3=O)C4=O)CC2)CCN1c1ccc(C(=O)Nc2cc3[nH]c([C@H]4CCCN4C)cc3cn2)cc1 (stereo partly drawn) [Example 132, 4-((2S)-4-((1-(2-(2,6-dioxopiperidin-3-yl)-1-oxoisoindolin-4-yl)piperidin-4-yl)methyl)-2-methylpiperazin-1-yl)-N-(2-((R)-1-methylpyrrolidin-2-yl)-1H-pyrrolo[3,2-c]pyridin-6-yl)benzamide] | ≤ 100 | B (Category B: 50% ≤ B < 75% degradation) | A (Category A: A ≥ 75% degradation) | B (Category B: 50% ≤ B < 75% degradation)
5 | CN1CCC[C@@H]1c1cc2cnc(NC(=O)c3ccc(CCCC4CCN(c5cccc6c5CN(C5CCC(=O)NC5=O)C6=O)CC4)cc3)cc2[nH]1 (stereo in doubt) [Example 77, 4-(3-(1-(2-((rel-S)-2,6-dioxopiperidin-3-yl)-1-oxoisoindolin-4-yl)piperidin-4-yl)propyl)-N-(2-((R)-1-methylpyrrolidin-2-yl)-1H-pyrrolo[3,2-c]pyridin-6-yl)benzamide] | ≤ 100 | A (Category A: A ≥ 75% degradation) | A (Category A: A ≥ 75% degradation) | A (Category A: A ≥ 75% degradation)
6 | CN1CCC[C@@H]1c1cc2cnc(NC(=O)c3ccc(N4CCN(CC#Cc5cccc6c5CN(C5CCC(=O)NC5=O)C6=O)CC4)nc3)cc2[nH]1 (stereo partly drawn) [Example 6, 6-(4-(3-(2-(2,6-dioxopiperidin-3-yl)-1-oxoisoindolin-4-yl)prop-2-yn-1-yl)piperazin-1-yl)-N-(2-((R)-1-methylpyrrolidin-2-yl)-1H-pyrrolo[3,2-c]pyridin-6-yl)nicotinamide] | ≤ 100 | A (Category A: A ≥ 75% degradation) | A (Category A: A ≥ 75% degradation) | B (Category B: 50% ≤ B < 75% degradation)
7 | CN1CCC[C@@H]1c1cc2cnc(NC(=O)c3ccc(OCCC4CCN(c5cccc6c5CN(C5CCC(=O)NC5=O)C6=O)CC4)cc3)cc2[nH]1 (mixture of isomers) [Example 79, 4-(2-(1-(2-(2,6-dioxopiperidin-3-yl)-1-oxoisoindolin-4-yl)piperidin-4-yl)ethoxy)-N-(2-((R)-1-methylpyrrolidin-2-yl)-1H-pyrrolo[3,2-c]pyridin-6-yl)benzamide] | ≤ 100 | A (Category A: A ≥ 75% degradation) | A (Category A: A ≥ 75% degradation) | A (Category A: A ≥ 75% degradation)
8 | CN1CCC[C@@H]1c1cc2cnc(NC(=O)c3ccc(CCCCC#Cc4cccc(N5CCC(=O)NC5=O)n4)cc3)cc2[nH]1 [Example 9, (R)-4-(6-(6-(2,4-dioxotetrahydropyrimidin-1(2H)-yl)pyridin-2-yl)hex-5-yn-1-yl)-N-(2-(1-methylpyrrolidin-2-yl)-1H-pyrrolo[3,2-c]pyridin-6-yl)benzamide] | ≤ 100 | A (Category A: A ≥ 75% degradation) | A (Category A: A ≥ 75% degradation) | A (Category A: A ≥ 75% degradation)
9 | CN1CCC[C@@H]1c1[nH]c2cc(NC(=O)c3ccc(CCCC#Cc4cccc5c4CN(C4CCC(=O)NC4=O)C5=O)cc3)ncc2c1Cl (stereo partly drawn) [Example 100, N-(3-chloro-2-((R)-1-methylpyrrolidin-2-yl)-1H-pyrrolo[3,2-c]pyridin-6-yl)-4-(5-(2-(2,6-dioxopiperidin-3-yl)-1-oxoisoindolin-4-yl)pent-4-yn-1-yl)benzamide] | ≤ 100 | A (Category A: A ≥ 75% degradation) | A (Category A: A ≥ 75% degradation) | A (Category A: A ≥ 75% degradation)
10 | CN1CCC[C@@H]1c1cc2cnc(NC(=O)c3ccc(N4CCC(OCc5ccc(-c6cccc7c6CN(C6CCC(=O)NC6=O)C7=O)cc5)CC4)cc3)cc2[nH]1 (stereo partly drawn) [Example 85, 4-(4-((4-(2-(2,6-dioxopiperidin-3-yl)-1-oxoisoindolin-4-yl)benzyl)oxy)piperidin-1-yl)-N-(2-((R)-1-methylpyrrolidin-2-yl)-1H-pyrrolo[3,2-c]pyridin-6-yl)benzamide] | ≤ 100 | C (Category C: 25% ≤ C < 50% degradation) | A (Category A: A ≥ 75% degradation) | B (Category B: 50% ≤ B < 75% degradation)
11 | CN1CCC[C@@H]1c1cc2cnc(NC(=O)c3ccc(OCCC4CCN(c5cccc6c5CN(C5CCC(=O)NC5=O)C6=O)CC4)cc3F)cc2[nH]1 (mixture of isomers) [Example 171, 4-(2-(1-(2-(2,6-dioxopiperidin-3-yl)-1-oxoisoindolin-4-yl)piperidin-4-yl)ethoxy)-2-fluoro-N-(2-((R)-1-methylpyrrolidin-2-yl)-1H-pyrrolo[3,2-c]pyridin-6-yl)benzamide] | ≤ 100 | A (Category A: A ≥ 75% degradation) | A (Category A: A ≥ 75% degradation) | A (Category A: A ≥ 75% degradation)
12 | CN1CCC[C@@H]1c1cc2cnc(NC(=O)c3ccc(N4CCC(C5CCN(c6cccc7c6CN(C6CCC(=O)NC6=O)C7=O)CC5)CC4)nc3)cc2[nH]1 (stereo partly drawn) [Example 75, 6-(1′-(2-(2,6-dioxopiperidin-3-yl)-1-oxoisoindolin-4-yl)-[4,4′-bipiperidin]-1-yl)-N-(2-((R)-1-methylpyrrolidin-2-yl)-1H-pyrrolo[3,2-c]pyridin-6-yl)nicotinamide] | ≤ 100 | A (Category A: A ≥ 75% degradation) | A (Category A: A ≥ 75% degradation) | A (Category A: A ≥ 75% degradation)
13 | CN1CCC[C@@H]1c1cc2cnc(NC(=O)c3cccc(CCCCC#Cc4cccc5c4CN(C4CCC(=O)NC4=O)C5=O)c3)cc2[nH]1 (stereo partly drawn) [Example 96, 3-(6-(2-(2,6-dioxopiperidin-3-yl)-1-oxoisoindolin-4-yl)hex-5-yn-1-yl)-N-(2-((R)-1-methylpyrrolidin-2-yl)-1H-pyrrolo[3,2-c]pyridin-6-yl)benzamide] | ≤ 100 | A (Category A: A ≥ 75% degradation) | A (Category A: A ≥ 75% degradation) | A (Category A: A ≥ 75% degradation)

Reference: patent publication US20260191968A1, “PROTAC DEGRADERS OF MLLT1 AND/OR MLLT3” (DARK BLUE THERAPEUTICS LTD, priority 2024, published 2026)
